In ChEMBL document CHEMBL1136756, “De novo design, synthesis, and evaluation of novel nonsteroidal phenanthrene ligands for the estrogen receptor” (J Med Chem, 2003):

Key:
Estrogen receptor = target: T1, Estrogen receptor (Homo sapiens, UniProt P03372)
T1 sequence (P03372 whole entry): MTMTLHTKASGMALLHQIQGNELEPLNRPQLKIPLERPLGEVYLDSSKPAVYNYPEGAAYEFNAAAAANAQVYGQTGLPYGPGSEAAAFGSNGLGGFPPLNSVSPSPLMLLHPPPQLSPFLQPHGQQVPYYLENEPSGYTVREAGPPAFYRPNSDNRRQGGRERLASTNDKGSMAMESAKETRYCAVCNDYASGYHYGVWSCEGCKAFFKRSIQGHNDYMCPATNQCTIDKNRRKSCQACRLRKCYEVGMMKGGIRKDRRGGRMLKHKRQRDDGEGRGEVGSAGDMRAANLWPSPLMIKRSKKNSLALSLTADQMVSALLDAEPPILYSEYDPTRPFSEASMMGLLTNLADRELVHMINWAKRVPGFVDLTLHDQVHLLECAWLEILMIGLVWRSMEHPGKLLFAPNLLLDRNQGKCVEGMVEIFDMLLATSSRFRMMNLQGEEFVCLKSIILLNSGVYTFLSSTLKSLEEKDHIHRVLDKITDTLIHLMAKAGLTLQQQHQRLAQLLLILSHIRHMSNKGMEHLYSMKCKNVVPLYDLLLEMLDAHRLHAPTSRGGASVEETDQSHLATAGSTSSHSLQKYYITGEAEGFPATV
Description: In vitro displacement of 0.5 nM [3H]17-beta-estradiol from human Estrogen receptor alpha

Estrogen receptor beta = Estrogen receptor beta (Homo sapiens, UniProt Q92731)
Estrogen receptor beta, sequence (Q92731 whole entry): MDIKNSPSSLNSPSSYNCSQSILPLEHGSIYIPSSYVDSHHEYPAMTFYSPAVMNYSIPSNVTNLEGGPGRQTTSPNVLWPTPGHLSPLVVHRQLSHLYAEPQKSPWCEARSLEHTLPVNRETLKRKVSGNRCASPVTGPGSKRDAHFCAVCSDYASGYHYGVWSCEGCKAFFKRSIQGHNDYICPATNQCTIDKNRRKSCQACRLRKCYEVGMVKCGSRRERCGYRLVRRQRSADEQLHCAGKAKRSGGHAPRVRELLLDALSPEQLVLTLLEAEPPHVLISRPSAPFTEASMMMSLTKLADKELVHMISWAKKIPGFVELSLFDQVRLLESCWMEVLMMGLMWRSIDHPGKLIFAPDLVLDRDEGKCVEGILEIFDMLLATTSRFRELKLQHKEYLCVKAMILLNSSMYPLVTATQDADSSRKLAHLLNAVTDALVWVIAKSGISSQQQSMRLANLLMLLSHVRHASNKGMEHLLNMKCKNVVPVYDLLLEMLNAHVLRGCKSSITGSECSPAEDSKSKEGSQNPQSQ
Description: In vitro displacement of 0.5 nM [3H]17-beta-estradiol from human Estrogen receptor beta

| SMILES | Ki (Estrogen receptor) [nM] | Ki (Estrogen receptor beta) [nM] |
| --- | --- | --- |
| CC(C)=C(C)c1ccc2c(c1)c(-c1ccc(OCCN3CCCCC3)cc1)cc1cc(O)cc(C)c12 | 210 | 200 |
| CC(=O)c1ccc2c(c1)c(-c1ccc(OCCN3CCCCC3)cc1)cc1cc(O)cc(C)c12 | > 1000 | 630 |
| CCc1ccc2c(c1)C(c1ccc(OCCN3CCCCC3)cc1)Cc1cc(O)cc(C)c1-2 (stereo unspecified) | 8.69 | 190 |
| C=C(C)c1ccc2c(c1)c(-c1ccc(OCCN3CCCCC3)cc1)cc1cc(O)cc(C)c12 | 290 | 180 |
| Cc1cc(O)cc2cc(-c3ccc(OCCN4CCCCC4)cc3)c3cc(C(C)O)ccc3c12 (stereo unspecified) |  | 190 |
| Cc1cc(O)cc2cc(-c3ccc(OCCN4CCCCC4)cc3)c3cc(C(=O)C(C)C)ccc3c12 | 490 | > 1000 |
